Data from the NIST ThermoML archive (doi:10.1016/j.jct.2017.05.001).

Assay: wn = mass fraction of the nth substance listed
Settings: Liquid; for viscosity: Falling or rolling sphere viscometry; for mass density: Vibrating tube method

OCCN(CCO)CCO [triethanolamine] + O
Settings | mass density, w1 = 0.0992 [kg/m3] | mass density, w1 = 0.2 [kg/m3] | mass density, w1 = 0.2991 [kg/m3] | mass density, w1 = 0.4 [kg/m3] | viscosity, w1 = 0.0992 [mPa·s] | viscosity, w1 = 0.2 [mPa·s] | viscosity, w1 = 0.2991 [mPa·s] | viscosity, w1 = 0.4 [mPa·s]
373.15 K, 30000 kPa | 985.1 | 998.4 | 1012.5 | 1027.7 | 0.3632 | 0.4601 | 0.6109 | 0.8363
373.15 K, 40000 kPa | 989.4 | 1002.6 | 1016.8 | 1032 | 0.3659 | 0.4638 | 0.6193 | 0.8525
373.15 K, 50000 kPa | 993.4 | 1006.7 | 1020.7 | 1035.7 | – | – | – | –
373.15 K, 60000 kPa | 997.4 | 1010.6 | 1024.6 | 1039.7 | 0.3738 | 0.4753 | 0.6379 | 0.8789
373.15 K, 70000 kPa | 1001.4 | 1014.5 | 1028.4 | 1043.5 | – | – | – | –
373.15 K, 80000 kPa | 1005.3 | 1018.5 | 1032.4 | 1047.3 | 0.3807 | 0.4864 | 0.655 | 0.9114
373.15 K, 90000 kPa | 1009.1 | 1022.1 | 1036 | 1050.8 | – | – | – | –
373.15 K, 100000 kPa | 1012.7 | 1025.7 | 1039.5 | 1054.3 | 0.3871 | 0.4953 | 0.6721 | 0.9403
373.15 K, 110000 kPa | 1016.4 | 1029.4 | 1043.1 | 1057.9 | – | – | – | –
373.15 K, 120000 kPa | 1019.9 | 1032.9 | 1046.8 | 1061.3 | – | – | – | –
373.15 K, 130000 kPa | 1023.3 | 1036.2 | 1050.1 | 1064.6 | – | – | – | –
373.15 K, 140000 kPa | 1026.8 | 1039.7 | 1053.4 | 1067.8 | – | – | – | –
393.15 K, 100 kPa | 956.1 | 969.2 | 982.9 | 998.1 | – | – | – | –
393.15 K, 500 kPa | 956.4 | 969.5 | 983.3 | 998.5 | – | – | – | –
393.15 K, 1000 kPa | 956.6 | 969.7 | 983.5 | 998.6 | – | – | – | –
393.15 K, 2000 kPa | 957.1 | 970.2 | 984 | 999.1 | – | – | – | –
393.15 K, 5000 kPa | 958.6 | 971.7 | 985.5 | 1000.6 | 0.2913 | 0.3551 | 0.4515 | 0.5873
393.15 K, 10000 kPa | 961.1 | 974.2 | 988 | 1003.1 | 0.2912 | 0.3579 | 0.4583 | 0.5948
393.15 K, 15000 kPa | 963.4 | 976.5 | 990.3 | 1005.4 | 0.2933 | 0.3633 | 0.4629 | 0.6019
393.15 K, 20000 kPa | 965.9 | 978.9 | 992.7 | 1007.8 | 0.295 | 0.362 | 0.4675 | 0.609
393.15 K, 25000 kPa | – | – | – | – | 0.2963 | 0.3674 | 0.4703 | 0.6136
393.15 K, 30000 kPa | 970.4 | 983.5 | 997.3 | 1012.4 | 0.2988 | 0.3659 | 0.4738 | 0.6246
393.15 K, 40000 kPa | 974.9 | 988 | 1001.8 | 1016.7 | 0.3022 | 0.3704 | 0.4822 | 0.6362
393.15 K, 50000 kPa | 979.2 | 992.3 | 1006 | 1021 | – | – | – | –
393.15 K, 60000 kPa | 983.5 | 996.5 | 1010.2 | 1025.2 | 0.308 | 0.3798 | 0.4973 | 0.6588
393.15 K, 70000 kPa | 987.7 | 1000.7 | 1014.4 | 1029.3 | – | – | – | –
393.15 K, 80000 kPa | 991.7 | 1004.6 | 1018.3 | 1033.1 | 0.3138 | 0.3888 | 0.5121 | 0.6835
393.15 K, 90000 kPa | 995.7 | 1008.6 | 1022.3 | 1037.1 | – | – | – | –
393.15 K, 100000 kPa | 999.4 | 1012.3 | 1026.1 | 1040.7 | 0.32 | 0.3982 | 0.5378 | 0.7054
393.15 K, 110000 kPa | 1003.3 | 1016.1 | 1029.8 | 1044.5 | – | – | – | –
393.15 K, 120000 kPa | 1006.9 | 1019.8 | 1033.4 | 1048.1 | – | – | – | –
393.15 K, 130000 kPa | 1010.4 | 1023.4 | 1036.9 | 1051.5 | – | – | – | –
393.15 K, 140000 kPa | 1014.1 | 1026.9 | 1040.5 | 1055 | – | – | – | –
